Source: article PMC5700983 (Nature Communications, 2017)
Like-named read-outs stand apart in the source and are kept apart here.

Assays:
Pm_PhnD = Pm_PhnD (Prochlorococcus marinus, UniProt A3PC74); assay: biochemical; format: binding, Prochlorococcus marinus MIT9301
Ps_PtxB = Ps_PtxB (Stutzerimonas stutzeri, UniProt O69052); assay: biochemical; format: binding, Pseudomonas stutzeri WM88
[1] = test system: Te_PtxB, Pm_PhnD and Ps_PtxB; format: binding
Te_PtxB [2] = molecular target: T1, Te_PtxB (Trichodesmium erythraeum, UniProt Q119I9); assay: biochemical; format: binding, Trichodesmium erythraeum IMS101
T1 sequence (Q119I9 28-298 limits assumed): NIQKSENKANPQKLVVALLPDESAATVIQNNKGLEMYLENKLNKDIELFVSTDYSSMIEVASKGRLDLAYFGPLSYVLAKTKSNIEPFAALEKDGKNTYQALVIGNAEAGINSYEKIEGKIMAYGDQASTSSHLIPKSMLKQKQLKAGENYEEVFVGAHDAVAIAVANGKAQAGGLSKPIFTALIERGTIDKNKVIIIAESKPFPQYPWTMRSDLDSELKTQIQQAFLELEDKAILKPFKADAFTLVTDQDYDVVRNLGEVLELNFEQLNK

Ec_PhnD = conditions: cited from earlier work
Te_PtxB Y208F [3] = molecular target: T2, Te_PtxB Y208F (Trichodesmium erythraeum, UniProt Q119I9, Y234F); assay: biochemical
T2 sequence (Q119I9 28-298 Y234F limits assumed): as the sequence (Q119I9 28-298 limits assumed) above, with Y207F counted along it

[4] = test system: E. coli strain devoid of its native phosphate acquisition systems; conditions: cited from earlier work
HtxB [5] = molecular target: T3, HtxB (Stutzerimonas stutzeri, UniProt O69061); conditions: pH 7.4
T3 sequence (O69061 34-298): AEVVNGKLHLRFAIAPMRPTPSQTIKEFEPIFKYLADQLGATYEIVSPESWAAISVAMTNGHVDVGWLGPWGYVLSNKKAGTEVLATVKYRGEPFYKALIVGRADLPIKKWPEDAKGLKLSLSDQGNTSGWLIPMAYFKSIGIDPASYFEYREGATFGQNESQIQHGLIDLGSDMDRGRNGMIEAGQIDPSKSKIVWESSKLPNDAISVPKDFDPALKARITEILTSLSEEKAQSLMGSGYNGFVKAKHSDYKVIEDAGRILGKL

Te_PtxB Y208A = Te_PtxB Y208A (Trichodesmium erythraeum, UniProt Q119I9, Y234A); assay: biochemical
Sequence of Te_PtxB Y208A (Q119I9 28-298 Y234A limits assumed): as the sequence (Q119I9 28-298 limits assumed) above, with Y207A counted along it

[6] = test system: E. coli strain devoid of its native phosphate acquisition systems; conditions: cited from earlier work; remark: listed apart in the source
Te_PtxB Y208F [7] = molecular target: T2, Te_PtxB Y208F
HtxB [8] = molecular target: T3, HtxB; assay: biochemical
Te_PtxB [9] = molecular target: T1, Te_PtxB; assay: biochemical
Pm_PtxB = conditions: cited from earlier work

Sequence of Ps_PtxB (O69052 24-287): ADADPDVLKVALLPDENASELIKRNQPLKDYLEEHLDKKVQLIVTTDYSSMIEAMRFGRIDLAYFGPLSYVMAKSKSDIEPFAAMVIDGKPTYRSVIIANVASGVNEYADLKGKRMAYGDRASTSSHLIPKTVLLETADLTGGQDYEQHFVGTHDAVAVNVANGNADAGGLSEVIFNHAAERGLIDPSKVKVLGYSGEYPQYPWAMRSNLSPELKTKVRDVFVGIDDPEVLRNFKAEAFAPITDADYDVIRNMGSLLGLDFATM
Sequence of Pm_PhnD (A3PC74 25-297): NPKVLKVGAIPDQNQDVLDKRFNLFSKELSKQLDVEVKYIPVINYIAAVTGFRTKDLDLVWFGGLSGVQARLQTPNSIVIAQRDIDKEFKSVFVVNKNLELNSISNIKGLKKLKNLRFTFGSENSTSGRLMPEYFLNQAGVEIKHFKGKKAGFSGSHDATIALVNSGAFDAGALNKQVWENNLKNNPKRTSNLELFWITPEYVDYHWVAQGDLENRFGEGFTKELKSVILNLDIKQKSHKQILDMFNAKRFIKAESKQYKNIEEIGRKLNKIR

In the case of `NCCP(=O)(O)O` [2-Aminoethylphosphonate, 2-aminoethylphosphonate], the “K d, Pm_PhnD” value (Pm_PhnD; pH 7.4) is reported as “NBD”, the “K d, Ps_PtxB” value (Ps_PtxB; pH 7.4) is reported as “NBD” and the “binding, result in words” value [1] is reported as “None of the proteins showed any evidence of binding”. For the same molecule, the “K d, Te_PtxB” value (Te_PtxB [2]; pH 7.4) was “NBD” and the “binding affinity for Ec_PhnD, in words” value (Ec_PhnD) was “low nanomolar”.

In the case of `O=P(O)(O)O` [Phosphate], the Kd (Te_PtxB Y208F [3]) is listed as greater than 60000 µM, the Kd (Ps_PtxB) is listed as 159 ± 36 µM and the “growth of E. coli strain with HtxBCDE” value [4] is listed as “did not allow growth”. For the same molecule, the “K d, HtxB” value (HtxB [5]) was “NBD”, the Kd (Te_PtxB Y208A) was 51.3 ± 1.76 µM and the “growth of E. coli strain with PtxD and Ralstonia sp. 4506 PtxABC” value [6] was “grew”. The “binding to Te_PtxB Y208F, result in words” value (Te_PtxB Y208F [7]) was “essentially abolished”.

Molecule `O=[PH](O)O` [Phosphite, phosphite] has a Kd (Te_PtxB Y208F [3]; K d, Te_PtxB Y208F) of 295 ± 4.64 µM, a Kd (Te_PtxB Y208F [3]; Kd, Te_PtxB Y208F (as quoted in peer review file)) of 295 µM and a Kd (Pm_PhnD) of 0.051 ± 0.004 µM. The “higher binding affinity for phosphite than phosphate and phosphonates, Pm_PhnD” value (Pm_PhnD) was 2–4 orders of magnitude, the Kd (HtxB [8]) was greater than 10000 µM and the Kd (Ps_PtxB) was 0.24 ± 0.03 µM. For the same molecule, the “growth of E. coli strain with HtxBCDE” value [4] was “did allow growth”, the Kd ([1]; read-out: K d range over Te_PtxB, Pm_PhnD and Ps_PtxB) was 0.05 to 0.24 µM and the Kd (Te_PtxB [9]) was 0.289 ± 0.064 µM. The “binding affinity for Pm_PtxB, in words” value (Pm_PtxB) was “low micromolar”, the Kd (Te_PtxB Y208A; K d, Te_PtxB Y208A) was 134 ± 6.4 µM and the Kd (Te_PtxB Y208A; Kd, Te_PtxB Y208A (as quoted in peer review file)) was 135 µM. For the same molecule, the “growth of E. coli strain with PtxD and Ralstonia sp. 4506 PtxABC” value [6] was “grew”, the “higher binding affinity for phosphite than phosphate and phosphonates, Te_PtxB” value (Te_PtxB [2]) was 2–4 orders of magnitude and the Kd (Te_PtxB [2]; K d, Te_PtxB) was 0.17 ± 0.07 µM. For the same molecule, the Kd (Te_PtxB [2]; Kd, PtxB (approximate, authors' response)) was roughly 0.17 µM and the Kd (Te_PtxB [2]; Kd, Te_PtxB WT (as quoted in peer review file)) was 0.17 µM.
